The values below come from patent US11332438B2, “Creatine prodrugs, compositions and methods of use thereof” (Ultragenyx Pharmaceutical Inc., priority 2017, dated 2022).

A short description of this data set: Chemical stability in simulated intestinal fluid (SIF) without pancreatin. As to conditions: Table 2A, 50 μM prodrug. In kind it is physicochemical. As for the experimental part: Chemical stability of creatine prodrugs in phosphate buffered saline (PBS), simulated intestinal fluid (SIF) without pancreatin, simulated gastric fluid (SGF) without pepsin were determined by LC-UV, LC-CAD, LC-UV-CAD or LC-MS/MS as appropriate. Creatine prodrugs of the present disclosure (50 μM) were incubated at 37° C. according to described protocols and prodrug levels were compared between t=0, t=15, t=60, and t=120 mins by peak area ratio to determine the percentage remained at t=120 mins (2 h).
Protocol for PBS, SIF and SGF stability for screening:
Prodrugs (50 μM) were incubated in PBS, FaSSIF (Biorelevant) or FaSSGF (Biorelevant) at 37° C.

Turning to `Cl.[2H]C([2H])([2H])N(CC(=O)OCC)C(=N)NC(=O)CCCCCCCCCC` [Compound 8], the “Chemical Stability SIF, no enzyme % T0 at 2 hours at 37 °C.” value is given as 17%.
